PMC12101129, “An optimized CYP3A4-activatable fluorogenic sensor for in situ functional imaging and multi-dimensional inhibitor assessment” (Chemical Science, 2025)
Read-outs that look alike come from different tables or passages of the source.

Tests used:
[1] = Phase II metabolic stability in HLMs; format: in vitro ADME; details: human, liver microsomes, read-out: phase II metabolic stability t1/2
[2] = molecular target: T1, NCN 4-hydroxylation in HLMs (Homo sapiens, UniProt P08684); experiment: Chemical inhibition assays of NCN 4-hydroxylation in HLMs; format: biochemical
T1 construct: tissue Bioreclamation IVT lot No. X008067; host or cells: pooled human liver microsomes from 50 donors

[3] = tested on: Hep3B cells; experiment: CCK-8 cytotoxicity assay; format: cell-based
[4] = Effect of pH on fluorescence response of HNCN; format: physicochemical
[5] = molecular target: T2, human P-glycoprotein (Homo sapiens, UniProt P08183); experiment: P-gp transporter assay in MDR1-MDCK cells with or without verapamil; format: in vitro ADME; details: for intracellular level in the presence of verapamil: MDR1-MDCK cells, with versus without verapamil
T2 construct: expressed in transfected cells; host or cells: MDR1-MDCK
Procedure: 1.10. P-gp transporter assay
To test whether NCN is pumped extracellularly by P-gp, MDR1-MDCK cells (a transfected cell line overexpressing human P-glycoprotein) were seeded in 96-well plates supplemented with DMEM media with 10% FBS. Then, verapamil (a potent P-gp inhibitor, 100 μL) was added to 96-well plates and cultured for 15 min. After that, the cells were treated with NCN/Rhodamine 123 (100 μL) for 2 h. The cells were collected and washed with PBS, and lysed by 200 µL ice-cold acetonitrile. Next, the cell supernatant was collected by centrifugation at 20,000 g, 4 °C for 30 min. The content of NCN in the cells was determined. […]

[6] = In vivo inhibitory effect of ketoconazole on NCN pharmacokinetics; details: rats; for AUC(0-inf) / Cmax / half-life: rat, plasma, po, 20 mg/kg, NCN 20 mg/kg i.g.
Procedure: Twelve rats were randomly divided into two groups (CMC-Na + NCN group, […]
ketoconazole + NCN group).
50 mg/kg, respectively. Firstly, blank blood samples were collected. Then, ketoconazole or CMC-Na (control group) was administered orally. After 30 min, NCN was administered orally and blood samples were collected at the following time points […]
5-fold volume of acetonitrile.
1.21. Statistical analysis
All data are expressed as the mean ± standard deviation. The Km, Vmax, and IC50 values were determined via non-linear regression analysis using GraphPad Prism software. All statistical analyses were carried out using GraphPad Prism software (GraphPad Prism 8.0), and Origin (2025).

[7] = tested on: NCM460 cells; experiment: Cell-membrane permeability assay in NCM460 cells; format: in vitro ADME
[8] = molecular target: T3, CYP3A4 (Homo sapiens, UniProt P08684); design: endogenous in cells; host or cells: Hep3B; details: cited from earlier work; for Km: CYP3A4, previously reported probe
[9] = tested on: Hep3B cells; experiment: Cell-membrane permeability assay in Hep3B cells; format: in vitro ADME; details: for Cell-membrane penetration: 20 μM, 1 h
Procedure: 1.9. Cell-membrane permeability assay
Hep3B cells were cultured with the DMEM media supplemented with 10% fetal bovine serum (FBS) in a humidified culture chamber at 37 °C with 95% air and 5%
CO2. The cells were trypsinized and resuspended with the DMEM basal medium at a […]
200 μL cell suspension was incubated with NCN (20 μM) at 37 °C for 1 h. Then, the cells were centrifuged (1000 rpm, 3 min), resuspended in DMEM media, and centrifuged again. Next, the cells were lysed with ice-cold methanol (200 μL) and centrifuged (20000 g, 30 min, 4 °C). The content of NCN in the supernatant was determined. […]

[10] = Bio-safety (tolerability) assessment of NCN in healthy mice; format: in vivo
Procedure: 1.15. Bio-safety assessment of NCN in healthy mice
Sixteen C57BL/6J mice (8 males and 8 females, 6 weeks) were randomly assigned into two groups (4 males and 4 females). All mice were subjected to adaptive feeding for 7 d before the experiment. NCN was dissolved in 0.5% CMC-Na, and mice were orally administered NCN (100 mg/kg)/0.5% CMC-Na continuously for 14 d. The mice were weighed every day, and their status was observed. After 14 d, blood and tissues from all mice were obtained for bio-safety assessment. Serum ALT, AST, TP, UREA, CREA, TG, Na+, and K+ levels were tested by using a fully automated serum biochemistry analysis (Thermo, USA). Mice organs were weighed and the organ index was calculated, and hematoxylin and eosin (H&E) stains were provided by Shanghai Ruibaohe Biotechnology Co., Ltd. […]

[11] = tested on: human liver microsomes (HLMs)
[12] = tested on: human liver microsomes (HLMs); experiment: Oxidative metabolism of candidate substrates in HLMs (fluorescent product formation); details: for fluorescence activation following oxidative metabolism: 30 min
[13] = molecular target: T4, human liver microsomes (HLMs) (Homo sapiens, UniProt P08684); experiment: Enzyme kinetic analysis of NCN 4-hydroxylation in HLMs; format: biochemical; details: Vmax/Km, enzyme source HLMs
T4 construct: tissue Bioreclamation IVT lot No. X008067; host or cells: pooled human liver microsomes from 50 donors
Procedure: (§1) 1.6. P450 reaction phenotyping and chemical inhibition assays
(§2) P450 reaction phenotyping analysis of NCN was determined using a panel of human recombinant cytochrome P450 enzymes, while the inhibitory effects of CYP specific inhibitors on NCN 4-hydroxylation in HLMs were assessed. The final concentration of each human recombinant CYP enzyme in the incubation system was 5 nM. Briefly, each sample was co-incubated with NCN at 37 °C for 30 min, the formation rate of HNCN was determined to assess the metabolic specificity of NCN.
(§3) Gaussian program conducted a GMMX conformational analysis using a DFT/B3LYP/6-31G(d) pre-optimized 3D geometry. The resulting GMMX conformers were optimized at B3LYP/6-31G(d) level. Moreover, all conformers were real minima, as no imaginary vibrational frequencies were found. The energy ranking was performed to find the minimum energy conformer. The minima conformer was optimized at B3LYP /6-311G(d,p) level. The molecular orbital energy levels and electrostatic potential (ESP) were calculated at the DFT/B3LYP/6-311G(d,p) level.
(§4) Frontier orbital and ESP were depicted by Multiwfn (Lu and Chen 2011) and VMD […]
(§5) 1.8. Enzyme kinetic analysis
(§6) The kinetic parameters of NCN 4-hydroxylation in HLMs were determined by performing a set of hydroxylation kinetic assays. Kinetic parameters (K m and Vmax) for NCN 4-hydroxylation were fitted by the following equation (a): […]

[14] = molecular target: T3, CYP3A4; experiment: Fluorescence response of NCN to CYP3A4 (NCN 4-hydroxylation); format: biochemical; design: purchased Cypex
[15] = tested on: human recombinant cytochrome P450 enzymes; experiment: P450 reaction phenotyping assay; format: biochemical; details: NCN, panel of human P450 enzymes including CYP3A5
Procedure: as §1, §2, §3, §4, §5, §6

[16] = Oral bioavailability of NCN (pharmacokinetics); format: in vivo, SD rats; details: Sprague-Dawley, rat, plasma, rats; for AUC(0-inf) / Cmax / Tmax / half-life: n = 5
Procedure: precipitate the protein. After centrifugation again, the supernatant was determined to
quantify the levels of HNCN.
1.17. Oral bioavailability of NCN
intravenous injection NCN group).
h, and 24 h, respectively.
8 h, 12 h, and 24 h, respectively. […]

[17] = KCZ 50 mg kg^−1 versus control, after oral NCN

T2 sequence (P08183 whole entry): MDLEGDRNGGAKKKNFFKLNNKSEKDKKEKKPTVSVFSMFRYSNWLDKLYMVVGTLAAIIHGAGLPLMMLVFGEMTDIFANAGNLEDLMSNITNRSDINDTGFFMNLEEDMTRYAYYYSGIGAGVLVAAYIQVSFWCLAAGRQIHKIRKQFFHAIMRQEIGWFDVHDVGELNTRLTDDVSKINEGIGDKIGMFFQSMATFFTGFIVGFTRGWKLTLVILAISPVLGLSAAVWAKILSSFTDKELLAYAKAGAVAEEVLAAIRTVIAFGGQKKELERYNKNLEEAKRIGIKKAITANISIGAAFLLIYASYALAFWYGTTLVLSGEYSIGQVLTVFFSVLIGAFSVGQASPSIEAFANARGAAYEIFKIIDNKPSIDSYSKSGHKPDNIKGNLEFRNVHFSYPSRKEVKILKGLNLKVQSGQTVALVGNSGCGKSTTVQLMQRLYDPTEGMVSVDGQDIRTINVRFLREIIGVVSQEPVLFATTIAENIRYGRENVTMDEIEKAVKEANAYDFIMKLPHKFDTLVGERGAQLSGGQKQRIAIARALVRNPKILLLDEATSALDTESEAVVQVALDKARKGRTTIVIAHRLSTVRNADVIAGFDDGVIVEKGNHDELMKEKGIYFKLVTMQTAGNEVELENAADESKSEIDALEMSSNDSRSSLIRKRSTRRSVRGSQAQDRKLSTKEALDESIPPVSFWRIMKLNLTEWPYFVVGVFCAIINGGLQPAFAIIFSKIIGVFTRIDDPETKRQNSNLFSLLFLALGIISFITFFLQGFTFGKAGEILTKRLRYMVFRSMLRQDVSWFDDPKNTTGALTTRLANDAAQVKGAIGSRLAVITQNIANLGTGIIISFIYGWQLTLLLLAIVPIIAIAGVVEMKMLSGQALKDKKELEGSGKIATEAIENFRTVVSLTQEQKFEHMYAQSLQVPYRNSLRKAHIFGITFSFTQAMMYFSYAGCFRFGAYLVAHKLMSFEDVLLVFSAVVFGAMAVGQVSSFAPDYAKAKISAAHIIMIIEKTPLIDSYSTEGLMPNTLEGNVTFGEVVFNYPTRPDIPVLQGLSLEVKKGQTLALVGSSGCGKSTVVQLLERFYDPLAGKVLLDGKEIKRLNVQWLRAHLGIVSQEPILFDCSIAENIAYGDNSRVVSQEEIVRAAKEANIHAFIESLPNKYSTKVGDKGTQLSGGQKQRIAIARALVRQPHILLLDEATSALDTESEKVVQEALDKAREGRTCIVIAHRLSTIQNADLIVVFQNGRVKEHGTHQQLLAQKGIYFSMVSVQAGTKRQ
T3 sequence (P08684 whole entry): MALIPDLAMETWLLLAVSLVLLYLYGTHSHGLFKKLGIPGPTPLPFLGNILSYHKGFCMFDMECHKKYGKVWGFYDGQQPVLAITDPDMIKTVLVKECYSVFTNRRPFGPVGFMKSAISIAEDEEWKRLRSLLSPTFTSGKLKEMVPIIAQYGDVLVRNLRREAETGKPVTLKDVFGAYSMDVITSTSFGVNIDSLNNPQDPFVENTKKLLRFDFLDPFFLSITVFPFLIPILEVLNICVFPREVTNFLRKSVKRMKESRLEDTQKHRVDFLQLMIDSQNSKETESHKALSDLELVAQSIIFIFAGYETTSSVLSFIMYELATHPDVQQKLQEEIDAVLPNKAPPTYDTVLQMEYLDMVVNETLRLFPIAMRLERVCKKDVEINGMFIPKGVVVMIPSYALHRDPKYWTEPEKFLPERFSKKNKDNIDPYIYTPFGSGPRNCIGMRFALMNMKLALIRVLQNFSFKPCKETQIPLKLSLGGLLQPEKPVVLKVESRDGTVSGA
T1 sequence (P08684 whole entry): as above
T4 sequence (P08684 whole entry): as above

For `O=c1ccc2ccc(O)cc2o1` [7-hydroxycoumarin, reference compound], the half-life [1] was 0.287 h.

With `Nn1nnc2ccccc21` [ABT, 1-aminobenzotriazole] the “inhibition of NCN 4-hydroxylation” value [2] was “completely blocking”.

With `Cc1ccc(-c2c(-c3nn(C)c4ncnc(N5CC[C@H](N6CCCCC6)C5)c34)cnn2C)cc1` [CYP3cide] the “inhibition of NCN 4-hydroxylation” value [2] was “completely blocking”.

In the case of `O=C1c2cccc3c(O)ccc(c23)C(=O)N1CC1CC1` [HNCN, N-cyclopropylmethyl-4-hydroxy-1,8-naphthalimide], the half-life [1] is reported as 1.36 h, the cytotoxicity [3] is reported as “minimal cytotoxicity” and the “pH range of stable fluorescence signals” value [4] is reported as 7.0–11.0. The P-gp substrate [5] was “non-substrates of P-gp”, the “intracellular level in the presence of verapamil” value (from here on “intracellular level”) [5] was “unchanged” and the AUC(0-inf) ([6]; control group (CMC-Na)) was 961 ng·h/mL. For the same compound, the Cmax ([6]; control group (CMC-Na)) was 101 ng/mL, the half-life ([6]; control group (CMC-Na)) was 1.77 h and the AUC(0-inf) ([6]; with KCZ 50 mg kg^−1 i.g.) was 245 ng·h/mL. The Cmax ([6]; with KCZ 50 mg kg^−1 i.g.) was 32 ng/mL, the half-life ([6]; with KCZ 50 mg kg^−1 i.g.) was 2.88 h and the “decrease of Cmax by KCZ” value [6, 17] was 3.16 fold. For the same compound, the “reduction of AUC(0-inf) by KCZ” value [6, 17] was 3.92 fold.

In the case of `CCN1C(=O)c2cccc3cccc(c23)C1=O` [NEN, N-ethyl-1,8-naphthalimide, reference compound], the Cell-membrane penetration [7] is given as 0.99%, the Km ([8]; ref Ning et al. 2019) is given as 59.8 µM and the Vmax ([8]; previously reported probe, ref Ning et al. 2019) is given as 2.18 nmol/min/nmol. For the same compound, the P-gp substrate [5] was “Yes”, the “intracellular level” value [5] was “significantly enhanced” and the Cell-membrane penetration [9] was 2.29%.

With `O=C1c2cccc3cccc(c23)C(=O)N1CC1CC1` [Probe 5, N-cyclopropylmethyl-1,8-naphthalimide] the Cell-membrane penetration [7] was 23.76%, the “enhancement in cell-membrane permeability compared to NEN” value [7] was 23.9 fold and the “toxicity, mortality, morbidity signs” value ([10]; oral 100 mg kg^−1, 14 consecutive days) was “no toxicity, mortality, or morbidity signs were observed”. For the same compound, the “histopathological examination of vital organs” value ([10]; oral 100 mg kg^−1, 14 days) was “no evidence of lesions or inflammation”, the “serum liver, kidney function and other indicators” value ([10]; oral 100 mg kg^−1, 14 days) was “within normal ranges” and the visceral organ appearance ([10]; oral 100 mg kg^−1, 14 days) was “normal in color, size, and shape”. For the same compound, the metabolites generated [11] was “a single oxidative metabolite”, the cytotoxicity [3] was “minimal cytotoxicity” and the “intracellular level” value [5] was “unchanged”. For the same compound, the P-gp substrate ([5]; listed as NCN) was “No and non-substrates of P-gp”, the “fluorescence activation following oxidative metabolism” value [12] was “noticeable fluorescence activation” and the “enhancement in cell-membrane permeability compared to NEN” value [9] was 13.7 fold. The Cell-membrane penetration [9] was 31.45%, the microsomal CLint [13] was 255 µL/min/mg and the Detection limit ([14]; CYP3A4 concentration, NCN as substrate) was 0.03 nM. For the same compound, the fluorescence enhancement ([14]; NCN 10 μM with CYP3A4 2 nM and NADPH, 30 min, around 555 nm) was 125 fold, the AUC(0-inf) ([6]; control group (CMC-Na)) was 1520 ng·h/mL and the Cmax ([6]; control group (CMC-Na)) was 207 ng/mL. It also gave a half-life ([6]; control group (CMC-Na)) of 1.47 h, an AUC(0-inf) ([6]; with KCZ 50 mg kg^−1 i.g.) of 5840 ng·h/mL and a Cmax ([6]; with KCZ 50 mg kg^−1 i.g.) of 674 ng/mL. For the same compound, the half-life ([6]; with KCZ 50 mg kg^−1 i.g.) was 2.3 h, the “increase of AUC0-inf by KCZ” value ([6]; KCZ 50 mg kg^−1 versus control) was 3.85 fold and the “increase of Cmax by KCZ” value ([6]; KCZ 50 mg kg^−1 versus control) was 3.26 fold. The isozyme specificity [15] was “only CYP3A4 could effectively trigger discernible fluorescence enhancement”, the AUC(0-inf) ([16]; iv, i.v. 2 mg/kg) was 858 ± 120 ng·h/mL and the Cmax ([16]; iv, i.v. 2 mg/kg) was 1860 ± 477 ng/mL. The Tmax ([16]; iv, i.v. 2 mg/kg) was 0.083 h, the half-life ([16]; iv, i.v. 2 mg/kg) was 2.59 ± 0.33 h and the bioavailability ([16]; po, 20 mg/kg i.g. versus 2 mg/kg i.v.) was 12.9%. For the same compound, the AUC(0-inf) ([16]; po, i.g. 20 mg/kg) was 1110 ± 208 ng·h/mL, the Cmax ([16]; po, i.g. 20 mg/kg) was 275 ± 65 ng/mL and the Tmax ([16]; po, i.g. 20 mg/kg) was 2 ± 0.71 h. For the same compound, the half-life ([16]; po, i.g. 20 mg/kg) was 1.79 ± 0.41 h.

In the case of `O=C1c2cccc3cccc(c23)C(=O)N1CC1CCC1` [Probe 6], the metabolites generated [11] is reported as “multiple metabolites” and the “fluorescence activation following oxidative metabolism” value [12] is reported as “noticeable fluorescence activation”.

For `O=C1c2cccc3cccc(c23)C(=O)N1Cc1ccco1` [Probe 15], the metabolites generated [12] was “multiple metabolites” and the “fluorescence activation following oxidative metabolism” value [12] was “noticeable fluorescence activation”.

For `O=C1c2cccc3cccc(c23)C(=O)N1Cc1ccc(F)cc1` [Probe F8, N-(4-fluorobenzyl)-1,8-naphthalimide, reference compound], the Cell-membrane penetration [7] is listed as 2.09%, the Km ([8]; ref He et al. 2023) is listed as 0.36 µM and the Detection limit ([8]; previously reported probe, ref He et al. 2023) is listed as 0.1 nM. For the same compound, the P-gp substrate [5] was “Yes”, the “intracellular level” value [5] was “significantly enhanced” and the Cell-membrane penetration [9] was 4.82%.

With `CC(C)c1nc(CN(C)C(=O)N[C@H](C(=O)N[C@@H](Cc2ccccc2)C[C@H](O)[C@H](Cc2ccccc2)NC(=O)OCc2cncs2)C(C)C)cs1` [ritonavir, reference compound] the cytotoxicity [3] was “minimal cytotoxicity”.
